A short description of the experiment: Glucose oxidase binding to saliva-coated hydroxyapatite disks (Amplex Red horseradish peroxidase coupled assay). The procedure:
Glucose oxidase binding to saliva coated hydroxyappetite disks is measured using a fluorescent (Amplex Red) horseradish peroxidase coupled assay directly from the disk surface.
Hydroxyapatite (HAP) disks coated with saliva are commonly used as models of a tooth surface.
Saliva was collected from 3-5 donors, clarified by centrifugation, and added to cover HAP disks (5 mm×2.0 mm Clarkson Chromatography) in a covered plastic tray. The disks were incubated with the saliva overnight, with gentle shaking, at room temperature. The disks were rinsed twice with 50 mM phosphate buffer prior to use in the binding assay. Varying concentrations of glucose oxidase (50-650 mU/ml) were added to the saliva-coated HAP disks in the presence of sorbitol (0.8-8%) or polyethyleneimine (1%). The amount of glucose oxidase retained on the hydroxyapatite disks, following three consecutive washes with phosphate buffered saline, was measured using a fluorescence (Amplex Red, Molecular Probes #A22189) horseradish peroxidase coupled assay, as per manufacturer's recommendation.

`OC[C@@H](O)[C@@H](O)[C@H](O)[C@@H](O)CO` [sorbitol]: the “binding of glucose oxidase to saliva coated hydroxyapatite disks relative to no additive” value (FIG. 1, additive sorbitol 8, 0.8, 0.08%, fluorescent Amplex Red HRP coupled assay from disk surface) is recorded as “improve binding relative to no additive”. For the same compound, for the setting “at least 0.8% sorbitol, glucose oxidase 50-650 mU/ml, after three washes with phosphate buffered saline”, the “amount of active glucose oxidase detected on the hydroxyapatite” value is listed as “increased the amount of active glucose oxidase detected on the hydroxyapatite”.

Source of the values: patent publication US20110236859A1, “ORAL CARE COMPOSITION CONTAINING OXIDASE ENZYME” (priority 2009, published 2011).
